Target: 1-phosphatidylinositol 3-phosphate 5-kinase (Homo sapiens, UniProt Q9Y2I7)
Experiment: Inhibition of PIKfyve
Method: The kinase reactions were assembled in 384-well plates (Greiner) in a total volume of […] as follows. Kinase protein was pre-diluted in an assay buffer comprising 25 mM HEPES, pH 7.5, 1 mM DTT, 2.5 mM MgCl2, and 2.5 mM MnCl2, and 0.005% Triton X-100, and dispensed into a 384-well plate (10 μL per well). Test compounds were serially pre-diluted in DMSO and added to the protein samples by acoustic dispensing (Labcyte Echo). The concentration of DMSO was equalized to 1% in all samples. All test compounds were tested at 12 concentrations. Apilimod was used as a reference compound and was tested in identical manner in each assay plate. Control samples (0%-inhibition, in the absence of inhibitor, DMSO only) and 100%-inhibition (in the absence of enzyme) were assembled in replicates of four and were used to calculate %-inhibition in the presence of compounds. The reactions were initiated by addition of 10 μL of 2× PI3P/PS substrate supplemented with ATP. The final concentration of enzyme was 2 nM, the final concentration of ATP was […], and the final concentration of PI3P/PS substrate was 1 μM (PI3P). The kinase reactions were allowed to proceed for 3 h at room temperature. Following incubation, the reactions were quenched by addition of […] of termination buffer (100 mM HEPES, pH 7.5, 0.01% Triton X-100, 20 mM EDTA).

1-phosphatidylinositol 3-phosphate 5-kinase, sequence (Q9Y2I7 whole entry): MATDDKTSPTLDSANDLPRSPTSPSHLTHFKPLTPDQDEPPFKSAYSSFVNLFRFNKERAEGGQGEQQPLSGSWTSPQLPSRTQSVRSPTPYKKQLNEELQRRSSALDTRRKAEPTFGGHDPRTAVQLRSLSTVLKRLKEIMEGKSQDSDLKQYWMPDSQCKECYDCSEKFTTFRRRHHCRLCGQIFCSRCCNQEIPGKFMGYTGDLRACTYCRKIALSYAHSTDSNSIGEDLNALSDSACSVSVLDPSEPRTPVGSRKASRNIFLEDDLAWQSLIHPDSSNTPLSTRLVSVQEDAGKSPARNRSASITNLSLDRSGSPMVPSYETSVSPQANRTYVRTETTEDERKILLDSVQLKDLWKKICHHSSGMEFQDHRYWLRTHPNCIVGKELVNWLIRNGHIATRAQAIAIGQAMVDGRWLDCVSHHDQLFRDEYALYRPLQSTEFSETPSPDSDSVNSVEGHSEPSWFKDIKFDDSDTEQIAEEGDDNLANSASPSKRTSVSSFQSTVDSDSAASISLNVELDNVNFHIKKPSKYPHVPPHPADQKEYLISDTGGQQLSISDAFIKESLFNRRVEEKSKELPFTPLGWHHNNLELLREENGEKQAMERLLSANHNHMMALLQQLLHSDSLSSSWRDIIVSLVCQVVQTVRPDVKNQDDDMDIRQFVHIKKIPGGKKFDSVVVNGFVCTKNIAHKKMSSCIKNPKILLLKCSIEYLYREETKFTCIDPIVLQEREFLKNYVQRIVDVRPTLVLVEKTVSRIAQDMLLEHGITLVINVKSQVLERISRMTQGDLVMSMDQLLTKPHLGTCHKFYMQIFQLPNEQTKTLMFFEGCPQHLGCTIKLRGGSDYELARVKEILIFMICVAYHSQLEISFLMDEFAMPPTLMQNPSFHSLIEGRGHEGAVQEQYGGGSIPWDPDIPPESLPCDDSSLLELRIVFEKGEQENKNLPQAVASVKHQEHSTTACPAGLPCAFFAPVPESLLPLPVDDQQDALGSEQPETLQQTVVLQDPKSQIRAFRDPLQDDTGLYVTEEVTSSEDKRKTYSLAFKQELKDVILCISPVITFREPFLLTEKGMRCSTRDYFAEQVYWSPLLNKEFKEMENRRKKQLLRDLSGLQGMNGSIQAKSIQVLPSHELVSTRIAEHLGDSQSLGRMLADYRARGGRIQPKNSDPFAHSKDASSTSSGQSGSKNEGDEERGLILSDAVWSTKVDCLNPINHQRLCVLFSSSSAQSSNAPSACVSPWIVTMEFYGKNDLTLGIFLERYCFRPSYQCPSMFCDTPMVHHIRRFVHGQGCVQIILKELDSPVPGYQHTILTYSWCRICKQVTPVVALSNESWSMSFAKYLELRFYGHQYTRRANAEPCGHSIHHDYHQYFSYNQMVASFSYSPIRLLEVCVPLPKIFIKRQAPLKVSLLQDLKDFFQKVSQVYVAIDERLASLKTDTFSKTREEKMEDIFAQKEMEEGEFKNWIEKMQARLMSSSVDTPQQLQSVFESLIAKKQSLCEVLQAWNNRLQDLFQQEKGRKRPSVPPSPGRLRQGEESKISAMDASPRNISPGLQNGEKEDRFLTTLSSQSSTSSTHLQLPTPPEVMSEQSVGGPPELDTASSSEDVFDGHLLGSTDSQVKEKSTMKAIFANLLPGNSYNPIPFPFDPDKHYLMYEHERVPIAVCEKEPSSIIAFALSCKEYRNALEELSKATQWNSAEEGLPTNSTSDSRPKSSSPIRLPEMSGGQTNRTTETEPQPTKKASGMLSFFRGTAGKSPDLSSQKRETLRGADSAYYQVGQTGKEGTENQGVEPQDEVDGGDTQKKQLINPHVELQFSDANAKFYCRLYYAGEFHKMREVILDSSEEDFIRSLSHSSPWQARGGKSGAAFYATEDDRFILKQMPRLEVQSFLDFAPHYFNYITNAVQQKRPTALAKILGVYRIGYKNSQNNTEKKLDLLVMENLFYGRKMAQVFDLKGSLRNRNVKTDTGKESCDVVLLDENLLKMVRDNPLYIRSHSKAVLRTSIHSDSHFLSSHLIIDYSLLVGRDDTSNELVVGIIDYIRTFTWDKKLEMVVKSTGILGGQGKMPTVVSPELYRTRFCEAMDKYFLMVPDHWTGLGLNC

IC50: 29.9 nM
SMILES: Nc1ccc(-c2cc3nc(-n4ccc(-c5ccccc5)n4)cc(N4CCOCC4)n3n2)cn1 [US12486274, Compound 98]

From BindingDB's records for patent US12486274 (Verge Analytics, 2025)
